From publication PMC12040169 (PLOS Biology, 2025)

Assay: in vitro
Details: human, hela cells, % viability

Structure (SMILES)	viability at 28.5 h, 10 µM [%]
CN(C)[C@H]1CC[C@@H](Cc2ccccc2)C[C@@H]1NC(=O)c1ccc(Cl)c(Cl)c1 [CBK012488]	97.3
c1ccc(SCc2nc(-c3cccnc3)no2)cc1 [CBK266078]	101
CCOc1ccc(N2C(=O)CC(NC3CCN(c4ncccn4)CC3)C2=O)cc1 (centres unmarked) [CBK269972]	112
O=C(Nc1cccc2ccccc12)C1CCC(C(=O)Nc2cccc3ccccc23)CC1 (centres unmarked) [CBK268706]	81.9
CN(c1cccc(C#N)c1)C1CCN(c2ncnc3c2cnn3C)C1 (centres unmarked) [CBK304720]	87.4
O=C1CC(c2ccccc2F)C2=C(COC2=O)N1 (centres unmarked) [CBK086692]	92
O=C(Nc1ccncc1)c1cccn(Cc2ccccc2F)c1=O [CBK287738]	111
O=C(O)c1nsnc1C(=O)O [CBK278311K]	114
COc1ccccc1CN(CCCN)C(=O)NC(C)c1ccccc1 (centres unmarked) [CBK034667C]	87.3
COCCCNC(=S)N/N=C/c1ccco1 [CBK006272]	104
COC(=O)c1sc(NC(=O)C2CCCO2)c(C(=O)OC)c1C (centres unmarked) [CBK262622]	88
COc1ccc2ccccc2c1CN1CCN(C/C=C/c2ccccc2)CC1 [CBK261899]	108
Cc1ccnc(SCc2ccc(F)cc2Cl)n1 [CBK270290]	87.4
CN(C)CCCNc1oc(/C=C/c2cccs2)nc1C#N [CBK269317]	86.7
COc1ccc(CCc2nc(C)cc(CN(C)C)c2O)cc1OC [CBK278320C]	89
CN(C)C(=O)c1cccc(-c2cnc(N3CCOCC3)c3nccn23)c1 [CBK091261]	101
COc1ccc(C2C=C(C)Nc3nc(N)nn32)cc1 (centres unmarked) [CBK287906]	91.8
Cc1ccccc1NC(=O)N1CCC2(CC1)NCCc1c2[nH]c2ccc(O)cc12 [CBK046904]	91
Nc1nnc(CSc2cccc3cccnc23)o1 [CBK021397]	108
CC(C)(C)OC(=O)N1CCC[C@H]1C(=O)c1cccnc1 [CBK284280]	99.3
CCc1ccc(CNC(=O)Cn2cc(-c3ccc(CN4CCC(CO)CC4)cc3)nn2)cc1 [CBK167551]	105
CCOCCn1c(CN2CCOCC2)nc2c1c(=O)n(C)c(=O)n2C [CBK306062]	105
CC(C)C[C@@H]1N[C@H](C(=O)NC2CC2)Cc2cn(Cc3nccn3C)c3cccc1c23 [CBK289423]	108

Structure (SMILES)	viability at 28.5 h, 10 µM [%]
O=C1N[C@]2(CCc3ccccc31)CN(CC1CC=CCC1)C[C@H]2CO (some centres unmarked) [CBK284794]	96
NC(=O)c1ccc(NC(=O)N2CCCCC2CO)cc1 (centres unmarked) [CBK156185]	83
O=C(NCCN1CCCCC1)C1CC(=O)N(Cc2ccccc2)C1 (centres unmarked) [CBK305150]	96.5
O=C(CCN1C(=O)/C(=C\c2cccs2)SC1=S)Nc1cc(Cl)ccc1O [CBK263643]	98.2
CCNC(=O)c1ccc(-c2ccc(OC(F)(F)F)cc2)nc1 [CBK156230]	110
O=C(CCSc1ccc([N+](=O)[O-])cc1Cl)Nc1ccc(Br)c2cccnc12 [CBK266407]	86.7
Cc1nonc1OCCN1CCN(c2cc3c(cc2[N+](=O)[O-])n(C)c(=O)n3C)CC1 [CBK267676]	104
COc1cc2c(cc1OC)CN(/C=N/c1sc3c(c1C#N)CC(C)(C)NC3(C)C)CC2 [CBK262918]	105
NC(=O)C1(N2CCCCC2)CCN(C(=S)Nc2ccc(Oc3ccccc3)cc2)CC1 [CBK265862]	84.7
c1csc(C2Nc3ccccc3C3=NCCCN32)c1 (centres unmarked) [CBK284489]	99.2
Cc1ncc(CN2CCCC(O)(c3ccc(F)cc3)CC2)n1C (centres unmarked) [CBK284836]	89.6
COc1ccc(C)cc1C1(CNC(=O)C2CCC(=O)N2)CCOCC1 (centres unmarked) [CBK304967]	94.8
O=S(=O)(c1ccc2ccccc2c1)N1CCCCC1CO (centres unmarked) [CBK200055]	100
O=C(O)CCC/N=C1/CCCc2ccccc2N1 [CBK261435]	104
O=C(c1coc2ccc(O)c(CN3CCCCC3)c12)C1CC1 [CBK263206C]	93.7
Cc1c(S(=O)(=O)Nc2ccc(C(O)(C(F)(F)F)C(F)(F)F)cc2)cnn1-c1ccccc1 [CBK062099]	92.1
O=S(=O)(Nc1ccccn1)N1CCCCC1 [CBK269490]	92.3
CSc1ccccc1C(=O)Nc1sc2c(c1C#N)CCN(C(C)=O)C2 [CBK304183]	55.3
CCOC(=O)C1(C2CCCCC2)CCN(C(=O)CC2CCCCC2)CC1 [CBK136919]	96.2
Cn1nccc1C(=O)C1CCN(C(=O)c2cccc(F)c2)CC1 [CBK284426]	89.2
COc1ccc(C)cc1N(CC(=O)Nc1ccccc1C(=O)O)S(C)(=O)=O [CBK264009]	94.4
Cn1c(SCC(=O)c2ccc([N+](=O)[O-])cc2)nnc1-c1ccc(N)cc1 [CBK264843]	97.9
O=C(O)CCC(=O)Nc1ccc(NC(=O)C2CCCCC2)c(Cl)c1 [CBK268867]	89.3

Structure (SMILES)	viability at 28.5 h, 10 µM [%]
Cc1cc2c(s1)c1cnn(Cc3ccccn3)c(=O)c1n2C [CBK284227]	65.4
O=C1CSC(c2ccc(F)cc2Cl)c2c[nH]nc2N1 (centres unmarked) [CBK287935]	91.4
O=C(Cn1cnnn1)N1CCc2ccccc2C1 [CBK200335]	101
Cc1noc(C)c1S(=O)(=O)Nc1cc(C(F)(F)F)ccc1N1CCOCC1 [CBK062545]	90.4
CCC1CCCCN1C(=O)c1ccc(-c2ccccc2)s1 (centres unmarked) [CBK074215]	96.5
NS(=O)(=O)c1ccc(CNC(=S)NC2CCCC2)cc1 [CBK265802]	97.8
Cc1cnn(C2CN(CC(=O)N3CCc4sccc4C3)C2)c1 [CBK305097]	86.8
Cc1sc2nc(SCC(=O)Nc3ccc(S(N)(=O)=O)cc3)n(-c3ccccc3)c(=O)c2c1C [CBK266600]	108
Cc1cc(C)c(NC(=O)C2CCCN2CCCN(C)C)c(C)c1 (centres unmarked) [CBK278172F]	97.1
COc1ccc(-c2cnccc2-n2ccnc2)cn1 [CBK177147]	113
O=C1CCCC[C@@H]2[C@@H](N1)[C@H](c1ccccc1)CN2Cc1ccc2ccccc2n1 [CBK286281]	93.1
CC1(C)SC2c3ccccc3C(=O)N2[C@@H]1C(=O)N1CCC(C(=O)O)CC1 (some centres unmarked) [CBK286760]	89.4
COc1ccc(C2CCN(Cc3ccncc3)CC2)cc1 [CBK283563]	95.8
COC(=O)CCN(C)CCC(=O)OC [CBK264539C]	95.4
Cc1cc(C)cc(CNC(=O)N(CCCO)Cc2ccncc2)c1 [CBK304335]	93.7
Cc1ccc(S(=O)(=O)/N=C(\Nc2nc3ccccc3o2)NS(=O)(=O)c2ccc(C)cc2)cc1 [CBK266728]	86
Cn1nc(-c2ccc(S(=O)(=O)Nc3nc(=O)[nH]cc3F)s2)cc1C(F)(F)F [CBK067574]	96.8
CCCNC(=O)Cc1sccc1NS(=O)(=O)c1ccc(C)cc1 [CBK038118]	83
CN(C)c1ccc(/C=C/c2noc(-c3ccccc3O)n2)cc1 [CBK268438]	109
COc1cccc2cc(C(=O)NCc3c(F)cccc3F)oc12 [CBK149794]	65
O=C(NCc1cccnc1)c1ccc(N2CCN(C(=O)c3ccccc3C(F)(F)F)CC2)nn1 [CBK153215]	72.3
O=C1NC2(CCOCC2)C(=O)N1Cc1ncc(-c2cccs2)o1 [CBK304187]	92
OC(Cn1c(Cc2ccccc2)nc2ccccc21)Cn1c2ccccc2c2ccccc21 (centres unmarked) [CBK262570]	95.2

Structure (SMILES)	viability at 28.5 h, 10 µM [%]
CN(C)c1ccc(/C=C2/C(=N)N3N=C(c4ccccc4Cl)SC3=NC2=O)cc1 [CBK097554]	94.6
COc1ccc(S(=O)(=O)NCCNC(=O)c2cc(-c3cccc(S(C)(=O)=O)c3)cnc2NCC2CC2)cc1 [CBK076425]	94.6
Cc1sc(NC(=S)NC(=O)C2CCCCC2)c(C(N)=O)c1C [CBK266273]	97.3
CC(C)Cn1cnc(S(=O)(=O)N2CCC(Cc3ccccc3)CC2)c1 [CBK306273]	92.3
Cc1cc(S(=O)(=O)NCCn2nc(C)c(C)c2C)ccc1F [CBK281382]	71.9
CC(CCc1ccc(F)cc1)NC(=O)c1cc2c([nH]c1=O)CCC2 (centres unmarked) [CBK281512]	91.9
O=C(Nc1ccc(N2CCCCC2)c2ccncc12)c1cccc(-n2cnnn2)c1 [CBK297754]	85.8
Cc1cnn(C)c1CN1CCNC(=O)C1c1ccccc1C(F)(F)F (centres unmarked) [CBK304260]	86.2
COC(=O)c1ccccc1NC(=O)N1CCN(S(=O)(=O)c2ccc(Cl)cc2)CC1 [CBK266860]	88
CCOC(=O)c1cnc(SC)nc1N1CCOCC1 [CBK018971]	90.7
Cc1[nH]c(=O)[nH]c(=O)c1Cc1ccccc1 [CBK113244]	113
C(#Cc1ccc(-c2nc(-c3ccc(Sc4ccccc4)cc3)c(-c3ccc(Sc4ccccc4)cc3)[nH]2)cc1)c1ccccc1 [CBK261954]	95.3
O=C(O)C1CCC1C(=O)N1CCN(c2nc3ccc(Cl)cc3s2)CC1 (centres unmarked) [CBK057108]	92.4
OC(c1ccc2c(c1)OCO2)C1CCCCC1N1CCCCCC1 (centres unmarked) [CBK022779C]	100
CC(=O)[C@H]1C[C@@H](CC(=O)N2CCN(c3ccc(C(F)(F)F)cc3)CC2)C1(C)C [CBK091330]	93.6
CCn1c2cc(C)sc2c2cnn(CC(=O)NC(C)(C)C)c(=O)c21 [CBK284152]	92.5
CC(C)(C)OC(=O)N(c1cncc(N2CCNCC2)n1)[C@@H]1CCOc2ccccc21 [CBK172251G]	109
Cc1nc2sc3c(c2c2nc(-c4ccncc4)nn12)CCCC3 [CBK288541]	94.5
Cc1ccc(C(=O)N2CCC(c3nc4ccccc4s3)CC2)cc1NS(C)(=O)=O [CBK254629]	89.2
CCN(CC1CCN(c2ccccn2)CC1)C(=O)C1(C#N)CCCC1 [CBK304096]	98.7
